Assay results from US7939083B2, “Soluble, stabilized, proteolytically cleaved, trimeric HIV-1 gp140 proteins comprising modifications in the N-terminus of the gp41 ectodomain” (Progenics Pharmaceuticals Inc., priority 2006, dated 2011).

Columns and labels:
[1] = Tween 20 aggregate conversion experiments (BN-PAGE); format: physicochemical; settings: Tween 20 0.05%, 10 minutes, room temperature
Description: Tween® 20 Dose effect: 1 ug of purified KNH1144 SOSIP R6 trimer was incubated with varying concentrations of Tween® 20 (polyoxyethylene sorbitan monolaurate) ranging from 0 to 0.0001% (v/v) and incubated for 1 hour at room temperature. Following incubation, samples were analyzed by BN-PAGE as described above.
Kinetics of Tween® 20 effect: To ascertain the early kinetics of the Tween® 20 effect on aggregate, 1 ug of purified KNH1144 SOSIP R6 trimer was incubated with Tween® 20 at a final concentration of 0.05% (v/v) for 5 minutes and for 10 minutes. A no-detergent control was included separately for each timepoint.
Temperature dependance on Tween® 20 effect: To determine if temperature affected the ability of Tween® 20 to recover trimers from aggregates (i.e., collapse aggregate into trimer), 1 ug of purified KNH1144 SOSIP R6 trimer was incubated with Tween® 20 to a final concentration of 0.05% (v/v) at 0° C. […] Following the incubation, samples were analyzed by BN-PAGE and Coomassie staining.
Following the treatment, samples were analyzed by BN-PAGE and Coomassie staining.
Tween® 20 effect on -2-macroglogulin (a2M): 0.5 ug of purified -2-macroglobulin was either untreated or treated with Tween® 20 at a final concentration of 0.05% for 10 minutes at room temperature. Reactions were analyzed via BN-PAGE, followed by Coomassie staining.

[2] = DEAE anion exchange chromatography of Tween 20-treated trimers; format: physicochemical; settings: Tween 20 treated (0.05%), TN-75 buffer
Description: Purified KNH1144 SOSIP R6 gp140 trimers, treated either with or without 0.05% Tween® 20 (final), containing a2M contaminant in TN-75 buffer was applied over 1 ml DEAE HiTrap FF column (equilibrated in TN-75) at 0.25 ml/min at RT and flow-through (FT) fractions were collected. Following sample loading, the column was washed with TN-75 at 0.5 ml/min and wash fractions were collected. Finally, the column was eluted with TN-300 and equal amounts from each fraction were analyzed via BN-PAGE, followed by Coomassie G-250 staining.

[3] = tested on: JR-FL gp41 NT 1-5 Env-pseudotyped virus; format: cell-based, HIV-1 JR-FL; settings: U87.CD4.CCR5 cells; in nM for T-20
Description: (§1) Pseudotyped virions bearing JR-FL envelope glycoproteins (WT and mutant) were produced by cotransfection of selected env clones with a luciferase-expressing reporter vector, pNL4-3Env(−)Luc(+), as described above. To measure infectivity, luciferase-expressing Env-pseudotyped viruses (50 μl) containing normalized amounts of p24 antigen were added to 3×10^3 U87.CD4.CCR5 cells/well. U87.CD4.CXCR4 cells were used as a negative control. After 4 days, th cells were lysed with 75 μl of 1× Glo lysis buffer (Promega, Calif.) for subsequent quantification of luciferase, which was expressed by the Env-pseudotyped virions that contain the gene for firefly luciferase inserted into the nef gene of HIV-1, using the Bright-Glo™ Luciferase Assay Substrate (Promega, Calif.) and a VICTOR3 1420 multilabel counter (Perkin Elmer Life Sciences, Mass.).
(§2) Neutralization of infectivity was performed as described previously (Trkola et al., 1998). The pseudovirions were incubated with an equal volume of various MAbs, CD4-IgG2, or T-20 for 1 hour at 37° C. before the residual infectivity was determined using U87.CD4.CCR5 cells as described above. The concentration of each inhibitor was expressed as the amount present after the inhibitor-virus mixture was added to the cells. The data were analyzed by non-linear regression (variable-slope sigmoidal dose response) to calculate the inhibitor concentrations that caused 50% reductions in luciferase expression (IC50), using the GraphPad Prism 4 software (maximal viral production in the absence of inhibitor was designated as 100%).

[4] = tested on: JR-FL WT Env-pseudotyped virus; format: cell-based, HIV-1 JR-FL
Description: as §1, §2

Substance | effect of Tween 20 on BN-PAGE migration [1] | binding to DEAE column [2] | IC50 [3] | IC50 against WT Env-pseudotyped virus greater than against the mutant [4] | IC50 ([4]; U87.CD4.CCR5 cells, in nM for T-20)
a2M: acidic 726 kDa tetrameric glycoprotein, contaminant/control protein | No change was observed in the migratory pattern | bound to the DEAE column | – | – | –
enfuvirtide | – | – | 11.5 nM | 2 fold | 24.2 nM
